From publication PMC10258794, “To Fold or Not to Fold: Diastereomeric Optimization of an α-Helical Antimicrobial Peptide” (Journal of Medicinal Chemistry, 2023)
Converted amounts (≈) assume the structure as drawn. Like-named read-outs stand apart in the source and are kept apart here.

Experiments:
[1] = system: S. aureus COL MRSA; conditions: for MIC S. aureus COL MRSA: MH broth pH 7.4, 16–20 h, 37 °C; for MIC S. aureus COL: supplementary CSV, ranges of Table 1 given as one number
Protocol: (§1) Antimicrobial activity was determined for all peptides on E. coli W3110, P. aeruginosa PAO1, A. baumannii ATCC19606, K. pneumoniae NCTC418, and methicillin-resistant S. aureus COL and for selected peptides on P. aeruginosa PA14 and the polymyxin B-resistant derivatives PA14 4.13, PA14 4.18, and PA14 2P4 as well as the clinical isolates ZEM-1A and ZEM9A, K. pneumoniae OXA-48, Enterobacter cloacae, Stenotrophomonas maltophilia, B. cenocepacia, and Staphylococus epidermis. To determine the MIC, the broth microdilution method was used.[75] A single bacterial colony was grown in LB medium overnight at 37 °C and 180 rpm shaking. The compounds were prepared as stock solutions of 2 mg/mL in sterilized milliQ deionized water, added to the first well of 96-well sterile, polypropylene round-bottom microtiter plates (TPP, untreated, Corning Incorporated, Kennebunk, USA), and diluted serially by 1/2. […] The bacterial inoculum was prepared by measuring the absorbance of the overnight culture, which was diluted to concentration of the bacteria was quantified by measuring absorbance at 600 nm and diluted to an OD600 of 0.022 in MH medium pH 7.4 (Sigma-Aldrich, Buchs, Switzerland). The sample solutions (150 μL) were mixed with 4 μL of diluted bacterial suspension with a final inoculation of about 5 × 10^5 CFU. For each test, two columns of the plate were kept for sterility control (MH medium only) and growth control (MH medium with bacterial inoculum, no compound). […] The plates were incubated at 37 °C for 16–20 h under static conditions. 15 μL of 3-(4,5-dimethylthiazol-2-yl)-2,5-diphenyltetrazolium bromide (MTT)[76] (1 mg/mL in sterilized milliQ deionized water) was added to each well, and the plates were incubated at room temperature until MTT staining was completed. The MIC was defined as the lowest concentration of the dendrimer that inhibits the visible growth of the tested bacteria (yellow) with the unaided eye.

[2] = system: P. aeruginosa PAO1
Protocol: as §1

[3] = system: K. pneumoniae NCTC418
Protocol: as §1

[4] = system: E. coli W3110; conditions: MH broth pH 7.4, 16–20 h, 37 °C
Protocol: as §1

[5] = system: A. baumannii ATCC19606
Protocol: as §1

[6] = MH broth pH 7.4, 16–20 h, 37 °C
[7] = supplementary CSV, ranges of Table 1 given as one number

SMILES | MIC S. aureus COL MRSA [1] | MIC S. aureus COL [1] | MIC P. aeruginosa PAO1 [2, 6] | MIC P. aeruginosa PAO1 [2, 7] | MIC K. pneumoniae NCTC418 [3, 6] | MIC E. coli W3110 [4] | MIC A. baumannii ATCC19606 [5, 6] | MIC A. baumannii ATCC19606 [5, 7] | MIC K. pneumoniae NCTC418 [3, 7]
CC(C)C[C@H](NC(=O)[C@H](CC(C)C)NC(=O)[C@@H](CCCCN)NC(=O)[C@H](CC(C)C)NC(=O)[C@H](CC(C)C)NC(=O)[C@@H](CCCCN)NC(=O)[C@H](CC(C)C)NC(=O)[C@H](CC(C)C)NC(=O)[C@@H](CCCCN)NC(=O)[C@H](N)CCCCN)C(=O)N[C@H](CC(C)C)C(N)=O [HP27, kkLLkLLkLLl] | 32 µg/mL (≈ 24.2 µM) | 32 µg/mL (≈ 24.2 µM) | 8 µg/mL (≈ 6.05 µM) | 8 µg/mL (≈ 6.05 µM) | >64 µg/mL | 4 µg/mL (≈ 3.03 µM) | 32 µg/mL (≈ 24.2 µM) | 32 µg/mL (≈ 24.2 µM) | 
CC(C)C[C@H](NC(=O)[C@@H](CC(C)C)NC(=O)[C@@H](CC(C)C)NC(=O)[C@H](CCCCN)NC(=O)[C@H](CC(C)C)NC(=O)[C@H](CC(C)C)NC(=O)[C@H](CCCCN)NC(=O)[C@H](CC(C)C)NC(=O)[C@@H](CC(C)C)NC(=O)[C@@H](CCCCN)NC(=O)[C@@H](N)CCCCN)C(N)=O [HP17, KklLKLLKllL] | 32 to 64 µg/mL | 48 µg/mL (≈ 36.3 µM) | 16 µg/mL (≈ 12.1 µM) | 16 µg/mL (≈ 12.1 µM) | 32 to 64 µg/mL | 8 µg/mL (≈ 6.05 µM) | 32 µg/mL (≈ 24.2 µM) | 32 µg/mL (≈ 24.2 µM) | 48 µg/mL (≈ 36.3 µM)
CC(C)C[C@H](NC(=O)[C@H](CC(C)C)NC(=O)[C@@H](CCCCN)NC(=O)[C@H](CC(C)C)NC(=O)[C@H](CC(C)C)NC(=O)[C@@H](CCCCN)NC(=O)[C@@H](CC(C)C)NC(=O)[C@H](CC(C)C)NC(=O)[C@H](CCCCN)NC(=O)[C@@H](N)CCCCN)C(=O)N[C@H](CC(C)C)C(N)=O [HP23, KKLlkLLkLLl] | 32 µg/mL (≈ 24.2 µM) | 32 µg/mL (≈ 24.2 µM) | 4 to 8 µg/mL | 6 µg/mL (≈ 4.54 µM) | >64 µg/mL | 2 µg/mL (≈ 1.51 µM) |  |  | 
CC(C)C[C@H](NC(=O)[C@@H](CC(C)C)NC(=O)[C@H](CCCCN)NC(=O)[C@@H](CC(C)C)NC(=O)[C@H](CC(C)C)NC(=O)[C@@H](CCCCN)NC(=O)[C@H](CC(C)C)NC(=O)[C@@H](CC(C)C)NC(=O)[C@H](CCCCN)NC(=O)[C@H](N)CCCCN)C(=O)N[C@H](CC(C)C)C(N)=O [HP31, kKlLkLlKlLl] | 32 µg/mL (≈ 24.2 µM) | 32 µg/mL (≈ 24.2 µM) | 8 µg/mL (≈ 6.05 µM) | 8 µg/mL (≈ 6.05 µM) | >64 µg/mL | 8 µg/mL (≈ 6.05 µM) | 32 µg/mL (≈ 24.2 µM) | 32 µg/mL (≈ 24.2 µM) | 
CC(C)C[C@H](NC(=O)[C@H](CC(C)C)NC(=O)[C@H](CC(C)C)NC(=O)[C@H](CCCCN)NC(=O)[C@@H](CC(C)C)NC(=O)[C@@H](CC(C)C)NC(=O)[C@H](CCCCN)NC(=O)[C@@H](CC(C)C)NC(=O)[C@@H](CC(C)C)NC(=O)[C@H](CCCCN)NC(=O)[C@@H](N)CCCCN)C(N)=O [HP14, KKllKllKLLL] | 16 to 32 µg/mL |  | 8 µg/mL (≈ 6.05 µM) | 8 µg/mL (≈ 6.05 µM) | >64 µg/mL | 2 µg/mL (≈ 1.51 µM) | 4 to 8 µg/mL | 6 µg/mL (≈ 4.54 µM) | 
CC(C)C[C@H](NC(=O)[C@H](CC(C)C)NC(=O)[C@H](CC(C)C)NC(=O)[C@H](CCCCN)NC(=O)[C@@H](CC(C)C)NC(=O)[C@@H](CC(C)C)NC(=O)[C@H](CCCCN)NC(=O)[C@H](CC(C)C)NC(=O)[C@H](CC(C)C)NC(=O)[C@H](CCCCN)NC(=O)[C@@H](N)CCCCN)C(N)=O [HP6, KKLLKllKLLL] | 16 µg/mL (≈ 12.1 µM) | 16 µg/mL (≈ 12.1 µM) | 8 µg/mL (≈ 6.05 µM) | 8 µg/mL (≈ 6.05 µM) | 64 µg/mL (≈ 48.4 µM) | 2 µg/mL (≈ 1.51 µM) | 4 µg/mL (≈ 3.03 µM) | 4 µg/mL (≈ 3.03 µM) | 64 µg/mL (≈ 48.4 µM)
